Measurements taken from patent US4256731A, “Oral Compositions” (priority 1979, dated 1981).

Assay: in vitro stain assay: inhibition of alexidine dihydrochloride mediated stain on saliva-coated hydroxylapatite, 5% tannic acid as staining agent
Details: tested in triplicate, pH and acid:alexidine mole ratio as listed per formulation
Procedure: Methods: The substrate for the in vitro stain assay was a saliva-coated hydroxylapatite and the staining agent was 5% tannic acid. Each formulation was tested in triplicate.

SMILES	% Inhibition of Alexidine . 2HCl Mediated Stain [%]
N[C@@H](CC(=O)O)C(=O)O [Aspartic Acid]	34
O=C(O)CC(O)(CC(=O)O)C(=O)O [Citric Acid]	32
O=C(O)/C=C/C(=O)O [Fumaric Acid]	44
N[C@@H](CCC(=O)O)C(=O)O [Glutamic Acid]	40
Nc1ccc(C(=O)O)cc1 [p-Aminobenzoic Acid]	22
